Values quoted from earlier work, collected in PubChem BioAssay AID1259409 (Chemical Carcinogenesis Research Information System (CCRIS), 2018).
Values joined by “and” are separate entries in the source; they are usually repeats but may differ in a detail not shown here. Identical values can stand only once.

Tested on: rodent chemically induced tumor inhibition, incidence and multiplicity
Assay: CCRIS tumor inhibitor studies
Details: Dose [Inhibitor]: 0

## COc1cc(CC(C)C(C)Cc2ccc(O)c(OC)c2)ccc1O (centres undefined)
Carcinogen: 2,2'-DIHYDROXY-DI-N-PROPYLNITROSAMINE, 53609-64-6, N-ETHYL-N-HYDROXYETHYLNITROSAMINE, 13147-25-6, 3,2'-DIMETHYL-1,4-, Carcinogen: 2,2'-DIHYDROXY-DI-N-PROPYLNITROSAMINE, 53609-64-6, N-ETHYL-N-HYDROXYETHYLNITROSAMINE, 13147-25-6, 3,2'-DIMETHYL-1,4-, 1% IN DIET FOR 4 WK BEGINNING 1 D PRIOR TO FIRST CARCINOGEN DOSE (STUDY DURATION: 36 WK), Route [Inhibitor]: ORAL, Species: RAT, Strain/Sex: F344/MALE, Target Tissue: Type of Lesion: KIDNEY: ADENOMA, Dose [Carcinogen]: 1000 MG/KG BW DHPN TWICE, 1500 MG/KG EHEN TWICE, 75 MG/KG BW DMAB 3 TIMES, SEQUENTIALLY OVER 3 WK, Promoter: NONE USED
  tumour outcome (control, treated, inhibition, significance): 6/10 (60%), 5/12 (42%), 30%, not significant
Carcinogen: 2,2'-DIHYDROXY-DI-N-PROPYLNITROSAMINE, 53609-64-6, N-ETHYL-N-HYDROXYETHYLNITROSAMINE, 13147-25-6, 3,2'-DIMETHYL-1,4-, Carcinogen: 2,2'-DIHYDROXY-DI-N-PROPYLNITROSAMINE, 53609-64-6, N-ETHYL-N-HYDROXYETHYLNITROSAMINE, 13147-25-6, 3,2'-DIMETHYL-1,4-, 1% IN DIET FOR 4 WK BEGINNING 1 D PRIOR TO FIRST CARCINOGEN DOSE (STUDY DURATION: 36 WK), Route [Inhibitor]: ORAL, Species: RAT, Strain/Sex: F344/MALE, Target Tissue: Type of Lesion: LUNG: ADENOMA, Dose [Carcinogen]: 1000 MG/KG BW DHPN TWICE, 1500 MG/KG EHEN TWICE, 75 MG/KG BW DMAB 3 TIMES, SEQUENTIALLY OVER 3 WK, Promoter: NONE USED
  tumour outcome (control, treated, inhibition, significance): 5/10 (50%), 6/12 (50%), 0%, not significant

## CC(C)=CCC/C(C)=C/COc1c2ccoc2cc2oc(=O)ccc12
Carcinogen: 7,12-DIMETHYLBENZ[A]ANTHRACENE, 57-97-6, 400 NMOL ONCE APPLIED 5 MIN PRIOR TO CARCINOGEN DOSE (STUDY DURATION: 25 WK), Route [Inhibitor]: DERMAL, Species: MOUSE, Strain/Sex: SENCAR, Target Tissue: Type of Lesion: SKIN: PAPILLOMA, Dose [Carcinogen]: 10 NMOL ONCE, Promoter: 12-O-TETRADECANOYLPHORBOL-13-ACETATE, 16561-29-8
  tumour outcome (control, treated, inhibition, significance): 96%, 100%, -4%, not significant
Carcinogen: 7-12-DIMETHYLBENZ[A]ANTHRACENE, 57-97-6, 800 NMOL ONCE APPLIED 5 MIN PRIOR TO CARCINOGEN DOSE (STUDY DURATION: 25 WK), Route [Inhibitor]: DERMAL, Species: MOUSE, Strain/Sex: SENCAR, Target Tissue: Type of Lesion: SKIN: PAPILLOMA, Dose [Carcinogen]: 10 NMOL ONCE, Promoter: 12-O-TETRADECANOYLPHORBOL-13-ACETATE, 16561-29-8
  tumour outcome (control, treated, inhibition, significance): 96%, 100%, -4%, not significant and 93%, 96%, -3%, not significant
Carcinogen: BENZO[A]PYRENE, 50-32-8, 20 NMOL ONCE APPLIED 5 MIN PRIOR TO CARCINOGEN DOSE (STUDY DURATION: 25 WK), Route [Inhibitor]: DERMAL, Species: MOUSE, Strain/Sex: SENCAR, Target Tissue: Type of Lesion: SKIN: PAPILLOMA, Dose [Carcinogen]: 200 NMOL ONCE, Promoter: 12-O-TETRADECANOYLPHORBOL-13-ACETATE, 16561-29-8
  tumour outcome (control, treated, inhibition, significance): 91%, 100%, -10%, not significant
Carcinogen: BENZO[A]PYRENE, 50-32-8, 100 NMOL ONCE APPLIED 5 MIN PRIOR TO CARCINOGEN DOSE (STUDY DURATION: 25 WK), Route [Inhibitor]: DERMAL, Species: MOUSE, Strain/Sex: SENCAR, Target Tissue: Type of Lesion: SKIN: PAPILLOMA, Dose [Carcinogen]: 200 NMOL ONCE, Promoter: 12-O-TETRADECANOYLPHORBOL-13-ACETATE, 16561-29-8
  tumour outcome (control, treated, inhibition, significance): 91%, 87%, 4%, not significant
Carcinogen: BENZO[A]PYRENE, 50-32-8, 400 NMOL ONCE APPLIED 5 MIN PRIOR TO CARCINOGEN DOSE (STUDY DURATION: 25 WK), Route [Inhibitor]: DERMAL, Species: MOUSE, Strain/Sex: SENCAR, Target Tissue: Type of Lesion: SKIN: PAPILLOMA, Dose [Carcinogen]: 200 NMOL ONCE, Promoter: 12-O-TETRADECANOYLPHORBOL-13-ACETATE, 16561-29-8
  tumour outcome (control, treated, inhibition, significance): 91%, 92%, -1%, not significant
Carcinogen: BENZO[A]PYRENE, 50-32-8, 800 NMOL ONCE APPLIED 5 MIN PRIOR TO CARCINOGEN DOSE (STUDY DURATION: 25 WK), Route [Inhibitor]: DERMAL, Species: MOUSE, Strain/Sex: SENCAR, Target Tissue: Type of Lesion: SKIN: PAPILLOMA, Dose [Carcinogen]: 200 NMOL ONCE, Promoter: 12-O-TETRADECANOYLPHORBOL-13-ACETATE, 16561-29-8
  tumour outcome (control, treated, inhibition, significance): 91%, 82%, 10%, not significant

## CC1(C)[C@H](O)CC[C@]2(C)C3=CC[C@@]4(C)[C@@H]5C[C@](C)(CO)CC[C@]5(C)CC[C@]4(C)C3=CC[C@@H]12
Carcinogen: 7,12-DIMETHYLBENZ[A]ANTHRACENE, 57-97-6, 2 UMOL IN 100 µL ACETONE:DMSO (9:1) 2/WK FOR 17 WK APPLIED 30 MIN PRIOR TO EACH PROMOTER DOSE (STUDY DURATION: 18 WK), Route [Inhibitor]: DERMAL, Species: MOUSE, Strain/Sex: ICR/FEMALE, Target Tissue: Type of Lesion: SKIN: PAPILLOMA, Dose [Carcinogen]: 50 UG IN 100 µL ACETONE ONCE, Promoter: 12-O-TETRADECANOYLPHORBOL-13-ACETATE, 16561-29-8
  tumour outcome (control, treated, inhibition, significance): 87%, 13%, 85%, not calculated

## [Cl][Cd][Cl]
Carcinogen: DIETHYLNITROSAMINE, 55-18-5, 500 PPM IN DRINKING WATER BEGINNING 2 WK POST CARCINOGEN DOSE AND CONTINUING FOR DURATION OF STUDY (STUDY DURATION: 5, Route [Inhibitor]: ORAL, Species: MOUSE, Strain/Sex: B6C3F1/MALE, Target Tissue: Type of Lesion: LIVER: TUMOR, Dose [Carcinogen]: 90 MG/KG IN TRICAPRYLIN (5 MG/ML) ONCE, Promoter: NONE USED
  tumour outcome (control, treated, inhibition, significance): 13/45 (29%), 3/42 (7%), 76%, p<0.05
Carcinogen: DIETHYLNITROSAMINE, 55-18-5, 500 PPM IN DRINKING WATER BEGINNING 2 WK POST CARCINOGEN DOSE AND CONTINUING FOR DURATION OF STUDY (STUDY DURATION: 5, Route [Inhibitor]: ORAL, Species: MOUSE, Strain/Sex: B6C3F1/MALE, Target Tissue: Type of Lesion: LUNG: TUMOR, Dose [Carcinogen]: 90 MG/KG IN TRICAPRYLIN (5 MG/ML) ONCE, Promoter: NONE USED
  tumour outcome (control, treated, inhibition, significance): 15/45 (33%), 11/42 (26%), 21%, not calculated
Carcinogen: DIETHYLNITROSAMINE, 55-18-5, 1000 PPM IN DRINKING WATER BEGINNING 2 WK POST CARCINOGEN DOSE AND CONTINUING FOR DURATION OF STUDY (STUDY DURATION:, Route [Inhibitor]: ORAL, Species: MOUSE, Strain/Sex: B6C3F1/MALE, Target Tissue: Type of Lesion: LIVER: TUMOR, Dose [Carcinogen]: 90 MG/KG IN TRICAPRYLIN (5 MG/ML) ONCE, Promoter: NONE USED
  tumour outcome (control, treated, inhibition, significance): 13/45 (29%), 0/47 (0%), 100%, p<0.05
Carcinogen: DIETHYLNITROSAMINE, 55-18-5, 1000 PPM IN DRINKING WATER BEGINNING 2 WK POST CARCINOGEN DOSE AND CONTINUING FOR DURATION OF STUDY (STUDY DURATION:, Route [Inhibitor]: ORAL, Species: MOUSE, Strain/Sex: B6C3F1/MALE, Target Tissue: Type of Lesion: LUNG: TUMOR, Dose [Carcinogen]: 90 MG/KG IN TRICAPRYLIN (5 MG/ML) ONCE, Promoter: NONE USED
  tumour outcome (control, treated, inhibition, significance): 15/45 (33%), 1/47 (2%), 94%, p<0.05

## O=C(CCC(O)c1ccccc1)c1ccccc1 (centres undefined)
Carcinogen: 4-(METHYLNITROSAMINO)-1-(3-PYRIDYL)-1-BUTANONE, 64091-91-4, 25 UMOL IN 0.1 ML CORN OIL ONCE 2 HR PRIOR TO CARCINOGEN DOSE (STUDY DURATION: 16 WK), Route [Inhibitor]: GAVAGE, Species: MOUSE, Strain/Sex: STRAIN-A/FEMALE, Target Tissue: Type of Lesion: LUNG: TUMOR, Dose [Carcinogen]: 10 UMOL IN 0.1 ML SALINE ONCE, Promoter: NONE USED
  tumour outcome (control, treated, inhibition, significance): 100%, 100%, 0%, not significant
